Source: publication PMC6156078, “Thalidomide promotes degradation of SALL4, a transcription factor implicated in Duane Radial Ray syndrome” (eLife, 2018)

Legend:
ZFP91 [1] = biological target: T1, ZFP91 (Homo sapiens, UniProt Q96JP5+Q96SW2); test: TMT proteomics MM1s cells: ZFP91 abundance; conditions: 5 h vs DMSO, thalidomide 10 µM, lenalidomide 5 µM, pomalidomide 1 µM
[2] = typical dose 200–400 mg thalidomide, 25 mg lenalidomide, 2 mg pomalidomide, ref Chen et al., 2017, Hoffmann et al., 2013, Teo et al., 2004, cited from earlier work
[3] = biological target: hsSALL4ZnF2 / DDB1∆B-CRBN (Homo sapiens, UniProt Q96SW2+Q9UJQ4); test: TR-FRET IMiD-dependent binding of SALL4ZnF2 to CRBN; conditions: DDB1∆B-CRBN 200 nM, hsSALL4ZnF2 100 nM
From the text: The TR-FRET signal of each data point was extracted by calculating the 520/490 nm ratios.

GAP43 = test: Rescue proteomics SK-N-DZ cells: GAP43 abundance; conditions: 1 µM pomalidomide, 5 h vs DMSO, rescue experiment (source data 13)
ARPP19 = test: TMT proteomics Kelly cells: ARPP19 abundance; conditions: 5 h vs DMSO, pomalidomide 1 µM
SALL4 [4] = biological target: T2, SALL4 (Homo sapiens, UniProt Q9UJQ4); conditions: Kelly cells
SALL4 [5] = biological target: T2, SALL4; test: TMT proteomics H9 hESC: SALL4 abundance; assay type: cell-based; conditions: H9 hES cells, 5 h vs DMSO; thalidomide 10 µM, lenalidomide 5 µM, pomalidomide 1 µM
From the text: (§1) We established a mass spectrometry-based workflow (Figure 1—figure supplement 1A) to detect IMiD-induced protein degradation in hESC.
(§2) Proteins were precipitated using methanol/chloroform.

mmSALL4 = biological target: T3, mmSALL4 (Mus musculus, UniProt Q8BX22); test: Western blot of mmSALL4 in mouse embryonic stem cells; assay type: cell-based; conditions: increasing concentrations, 24 h
T3 construct: endogenous in cells; host or cells: TC1 mouse embryonic stem cells

SALL4 [6] = test: Western blot of SALL4 in CRBN-/- Kelly and HEK293T cells; assay type: cell-based, human; conditions: increasing concentrations, 24 h
SALL4 [7] = biological target: T2, SALL4; test: Western blot of SALL4 in H9 hESC; assay type: cell-based; parameters: endogenous in cells; host or cells: Kelly, H9 hESC, SK-N-DZ cells; conditions: increasing doses, 24 h
RTN4 = test: Rescue proteomics SK-N-DZ cells: RTN4 abundance; conditions: 1 µM pomalidomide, 5 h vs DMSO, rescue experiment (source data 13)
IKZF3 = IKZF3 (Homo sapiens, UniProt Q96SW2+Q9UKT9); test: TMT proteomics MM1s cells: IKZF3 abundance; conditions: 5 h vs DMSO, thalidomide 10 µM, lenalidomide 5 µM, pomalidomide 1 µM
SALL4 [8] = biological target: T2, SALL4; test: Western blot of SALL4 in Kelly, SK-N-DZ, HEK293T and H661 cells; conditions: increasing concentrations, 24 h
SQRDL; SQOR = test: TMT proteomics MM1s cells: SQRDL abundance; conditions: 5 h vs DMSO, pomalidomide 1 µM
ZFP91 [9] = biological target: T1, ZFP91; test: TMT proteomics Kelly cells: ZFP91 abundance; conditions: 5 h vs DMSO, thalidomide 10 µM, lenalidomide 5 µM, pomalidomide 1 µM
IKZF1 = IKZF1 (Homo sapiens, UniProt Q13422+Q96SW2); test: TMT proteomics MM1s cells: IKZF1 abundance; conditions: 5 h vs DMSO, thalidomide 10 µM, lenalidomide 5 µM, pomalidomide 1 µM
DTWD1 = DTWD1 (Homo sapiens, UniProt Q8N5C7+Q96SW2); test: TMT proteomics H9 hESC: DTWD1 abundance; assay type: cell-based; conditions: H9 hES cells, 5 h vs DMSO; thalidomide 10 µM, lenalidomide 5 µM, pomalidomide 1 µM
From the text: as §1, §2

ILF3 = test: Rescue proteomics SK-N-DZ cells: ILF3 abundance; conditions: 1 µM pomalidomide, 5 h vs DMSO, rescue experiment (source data 13)
ZFP91 [10] = biological target: T1, ZFP91; test: TMT proteomics SK-N-DZ cells: ZFP91 abundance; conditions: 5 h vs DMSO, pomalidomide 1 µM, lenalidomide 5 µM, CC-220 0.1 µM, dBET57 1 µM
GZF1 = GZF1 (Homo sapiens, UniProt Q96SW2+Q9H116); test: TMT proteomics SK-N-DZ cells: GZF1 abundance; conditions: 5 h vs DMSO, pomalidomide 1 µM, lenalidomide 5 µM, CC-220 0.1 µM, dBET57 1 µM
FAM83F = FAM83F (Homo sapiens, UniProt Q8NEG4); test: TMT proteomics H9 hESC: FAM83F abundance; assay type: cell-based; conditions: H9 hES cells, 5 h vs DMSO; thalidomide 10 µM, lenalidomide 5 µM, pomalidomide 1 µM
From the text: as §1, §2

RAB28 [11] = biological target: T4, RAB28 (Homo sapiens, UniProt P51157); test: TMT proteomics SK-N-DZ cells: RAB28 abundance; conditions: 5 h vs DMSO, pomalidomide 1 µM, lenalidomide 5 µM, CC-220 0.1 µM, dBET57 1 µM
ZBTB39 [12] = biological target: T5, ZBTB39 (Homo sapiens, UniProt O15060+Q96SW2); test: TMT proteomics H9 hESC: ZBTB39 abundance; assay type: cell-based; conditions: H9 hES cells, 5 h vs DMSO; thalidomide 10 µM, lenalidomide 5 µM, pomalidomide 1 µM
From the text: as §1, §2

[13] = tested on: HIST1H4A; HIST1H4F; HIST1H4D; HIST1H4J; HIST2H4A; HIST2H4B; HIST1H4H; HIST1H4C; HIST4H4; HIST1H4E; HIST1H4I; HIST1H4B; HIST1H4K; HIST1H4L; test: Rescue proteomics SK-N-DZ cells: histone H4 abundance; conditions: 1 µM pomalidomide, 5 h vs DMSO, rescue experiment (source data 13)
TLN2 = test: Rescue proteomics SK-N-DZ cells: TLN2 abundance; conditions: 1 µM pomalidomide, 5 h vs DMSO, rescue experiment (source data 13)
CLIC4 = test: TMT proteomics Kelly cells: CLIC4 abundance; conditions: 5 h vs DMSO, pomalidomide 1 µM
VRTN = biological target: T6, VRTN (Homo sapiens, UniProt Q9H8Y1); test: TMT proteomics H9 hESC: VRTN abundance; assay type: cell-based; conditions: H9 hES cells, 5 h vs DMSO; thalidomide 10 µM, pomalidomide 1 µM
T6 construct: endogenous in cells; host or cells: H9 hESC
From the text: as §1, §2

COX5A = test: TMT proteomics Kelly cells: COX5A abundance; conditions: 5 h vs DMSO, pomalidomide 1 µM
ZNF98 = ZNF98 (Homo sapiens, UniProt A6NK75+Q96SW2); test: TMT proteomics SK-N-DZ cells: ZNF98 abundance; conditions: 5 h vs DMSO, pomalidomide 1 µM, lenalidomide 5 µM, CC-220 0.1 µM, dBET57 1 µM
SALL4 [14] = biological target: T2, SALL4; test: TMT proteomics Kelly cells: SALL4 abundance; conditions: 5 h vs DMSO, thalidomide 10 µM, lenalidomide 5 µM, pomalidomide 1 µM
RAB28 [15] = biological target: T4, RAB28; test: TMT proteomics MM1s cells: RAB28 abundance; conditions: 5 h vs DMSO, thalidomide 10 µM, lenalidomide 5 µM, pomalidomide 1 µM
ZBTB39 [16] = biological target: T5, ZBTB39; test: TMT proteomics SK-N-DZ cells: ZBTB39 abundance; conditions: 5 h vs DMSO, pomalidomide 1 µM, lenalidomide 5 µM, CC-220 0.1 µM, dBET57 1 µM
[17] = tested on: IMiD-dependent neo-substrates; test: TMT proteomics profiling of IMiD-dependent neo-substrates (hESC, Kelly, SK-N-DZ, MM1s); assay type: cell-based, human
From the text: as §1, §2

T6 sequence (Q9H8Y1 whole entry): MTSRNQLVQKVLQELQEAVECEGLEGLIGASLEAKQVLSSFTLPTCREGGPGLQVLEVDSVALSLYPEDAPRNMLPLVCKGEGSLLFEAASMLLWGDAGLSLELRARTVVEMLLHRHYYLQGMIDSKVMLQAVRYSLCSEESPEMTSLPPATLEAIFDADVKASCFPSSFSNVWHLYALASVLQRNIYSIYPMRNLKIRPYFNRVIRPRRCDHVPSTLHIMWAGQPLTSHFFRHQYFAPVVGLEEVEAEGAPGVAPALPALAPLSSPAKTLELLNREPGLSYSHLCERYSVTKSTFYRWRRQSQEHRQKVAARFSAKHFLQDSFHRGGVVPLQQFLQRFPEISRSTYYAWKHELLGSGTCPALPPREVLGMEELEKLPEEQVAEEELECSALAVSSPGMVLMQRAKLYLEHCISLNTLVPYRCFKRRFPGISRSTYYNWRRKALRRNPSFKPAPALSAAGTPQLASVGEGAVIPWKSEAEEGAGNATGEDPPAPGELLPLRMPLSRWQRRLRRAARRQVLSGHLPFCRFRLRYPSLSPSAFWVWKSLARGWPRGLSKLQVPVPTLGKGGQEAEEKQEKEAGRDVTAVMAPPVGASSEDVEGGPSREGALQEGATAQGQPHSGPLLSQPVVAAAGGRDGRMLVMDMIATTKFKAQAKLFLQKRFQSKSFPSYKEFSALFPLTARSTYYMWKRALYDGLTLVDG
T3 sequence (Q8BX22 whole entry): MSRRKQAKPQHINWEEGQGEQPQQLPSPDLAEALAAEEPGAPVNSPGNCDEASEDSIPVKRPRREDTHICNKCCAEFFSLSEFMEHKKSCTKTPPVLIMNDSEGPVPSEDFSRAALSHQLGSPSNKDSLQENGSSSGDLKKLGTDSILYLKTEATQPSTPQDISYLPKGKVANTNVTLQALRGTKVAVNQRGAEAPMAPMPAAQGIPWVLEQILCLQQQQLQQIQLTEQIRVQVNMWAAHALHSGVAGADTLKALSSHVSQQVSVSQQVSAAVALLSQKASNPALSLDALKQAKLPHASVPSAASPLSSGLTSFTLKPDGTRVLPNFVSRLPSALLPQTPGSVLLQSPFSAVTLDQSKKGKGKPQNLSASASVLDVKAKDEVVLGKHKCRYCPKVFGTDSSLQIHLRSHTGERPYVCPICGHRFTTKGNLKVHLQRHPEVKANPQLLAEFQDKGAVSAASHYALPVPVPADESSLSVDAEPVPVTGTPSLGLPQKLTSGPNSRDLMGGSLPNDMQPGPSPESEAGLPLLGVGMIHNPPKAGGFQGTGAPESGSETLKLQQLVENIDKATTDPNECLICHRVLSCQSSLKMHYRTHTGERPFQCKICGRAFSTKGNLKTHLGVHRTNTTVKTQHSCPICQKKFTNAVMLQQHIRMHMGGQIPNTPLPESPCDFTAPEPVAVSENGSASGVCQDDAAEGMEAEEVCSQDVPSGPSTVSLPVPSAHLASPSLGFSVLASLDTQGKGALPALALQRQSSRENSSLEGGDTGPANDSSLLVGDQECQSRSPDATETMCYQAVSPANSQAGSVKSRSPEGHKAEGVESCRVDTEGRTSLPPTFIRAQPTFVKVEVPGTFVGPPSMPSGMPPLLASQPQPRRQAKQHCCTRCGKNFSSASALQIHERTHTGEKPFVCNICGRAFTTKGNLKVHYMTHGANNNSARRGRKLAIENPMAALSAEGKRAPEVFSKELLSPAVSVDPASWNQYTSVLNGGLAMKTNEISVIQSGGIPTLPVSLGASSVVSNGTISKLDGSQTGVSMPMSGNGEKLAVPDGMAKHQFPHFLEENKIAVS

Question: What does the source list for Nc1cccc2c1C(=O)N(C1CCC(=O)NC1=O)C2=O (stereo not shown) [pomalidomide]?
Answer: logFC ZFP91 (ZFP91 [1]): -1.964; plasma half-life (t1/2) [2]: ~ 9 h; Cmax ([2]; read-out: maximum plasma concentration (Cmax)): 50 nM; rank order in binding observed with ZnF2 [3]: Pom >Thal >> Len; logFC GAP43 (GAP43): -0.1693; logFC ARPP19 (ARPP19): 0.611; earliest time of SALL4 degradation post treatment (SALL4 [4]; 1 or 5 µM pomalidomide): 4 h; time post washout at which SALL4 recovered to levels close to pre-treatment (SALL4 [4]; pomalidomide 8 h then washout): 48 h; logFC SALL4 (SALL4 [5]): -1.645; degradation of mmSALL4 in mESC (mmSALL4): does not promote degradation of mmSALL4; SALL4 degradation in CRBN-/- cells (SALL4 [6]): no degradation of SALL4 was observed; SALL4 protein levels (western blot) (SALL4 [7]): dose-dependent decrease in protein levels; logFC RTN4 (RTN4): -0.1703; logFC IKZF3 (IKZF3): -2.635; SALL4 protein levels (western blot) (SALL4 [8]): dose-dependent decrease in SALL4 protein levels; logFC SQRDL; SQOR (SQRDL; SQOR): 0.2873; logFC ZFP91 (ZFP91 [9]): -0.9865; logFC IKZF1 (IKZF1): -2.094; logFC DTWD1 (DTWD1): -1.822; logFC ILF3 (ILF3): -0.0757; logFC ZFP91 (ZFP91 [10]): -1.944; logFC GZF1 (GZF1): -0.5859; logFC FAM83F (FAM83F): -1.309; logFC RAB28 (RAB28 [11]): -1.455; logFC ZBTB39 (ZBTB39 [12]): -1.656; logFC HIST1H4A (histone H4 genes) [13]: -0.1522; logFC TLN2 (TLN2): -0.06109; logFC CLIC4 (CLIC4): -0.176; logFC VRTN (VRTN): -0.4677; logFC COX5A (COX5A): 0.352; logFC ZNF98 (ZNF98): -1.487; logFC SALL4 (SALL4 [14]): -1.873; logFC RAB28 (RAB28 [15]): -1.819; logFC ZBTB39 (ZBTB39 [16]): -1.448; number of substrates identified (rank order) ([17]; H9 hESC proteomics): Thal < Len << Pom; proteins degraded upon treatment (besides SALL4) ([17]; H9 hESC, 5 h, 5 µM lenalidomide, 1 µM pomalidomide): ZFP91 ([An et al., 2017]) and the largely uncharacterized proteins ZBTB39, FAM83F, WIZ, RAB28, and DTWD1; substrates robustly degraded (each drug in addition to the preceding one) ([17]; proteomics across hESC, MM1s, Kelly, SK-N-DZ cells): ZBTB39, ZFP91, DTWD1, and ZNF653
